Measured values published in patent publication US20260007679A1, “METHODS OF TREATING CANCER USING 3-(4-((4-(MORPHOLINOMETHYL)BENZYL)OXY)-1-OXOISOINDOLIN-2-YL)PIPERIDINE-2,6-DIONE” (Celgene Corporation, priority 2012, published 2026).
“And” between values parts separate entries of the source, which are not always exact repeats. Identical values can stand only once. Like-named read-outs stand apart in the source and are kept apart here. Each block holds one compound with its values, some of them ahead of it.

What was measured:
NFκB p65 and p50 = experiment: NFκB activity in DLBCL cells (Active Motif transcription factor assay); type: cell-based; conditions: 1 μM and 10 μM; 2 days; ABC-DLBCL lines such as TMD8 and OCI-Ly10
Experimental: DLBCL cells were treated with test compound or an IKK1/2 dual inhibitor (used as a positive inhibitor control) for 2 days. NFκB activity was examined with Active Motif transcription factor assay using nuclear extracts from cells following treatment.

[1] = test system: WSU-DLCL2 DLBCL xenograft; experiment: WSU-DLCL2 DLBCL xenograft model
[2] = test system: blood vessel growth in Matrigel plugs; experiment: Mouse Matrigel angiogenesis model; type: in vivo, C57B/6 mice; conditions: 3 and 30 mpk; 10 days
Experimental: Mouse Matrigel Angiogenesis model was conducted as follows: Matrigel plugs with rhVegf, rhbFGF and heparin were inserted into C57B/6 mice for 10 days with drug treatment. Plugs were analyzed for ms CD31 by IHC.

DoHH2 cell line = experiment: Apoptosis analysis (annexin-V); type: cell-based
Experimental: Apoptosis Analysis: Cells were treated with DMSO or an amount of a compound provided herein at various time points, then washed with annexin-V wash buffer (BD Biosciences). Cells were incubated with annexin-V binding protein and propidium iodide (BD Biosciences) for 10 minutes. Samples were analyzed using flow cytometry.

[3] = test system: H929 DMSO-treated subclone; experiment: Proliferation and viability by 7-AAD staining; type: cell-based; conditions: Homo sapiens, NCI-H929, 120 h, 5 days, read-out: IC50 for inhibition of proliferation
Experimental: CRBN ubiquitination was measured in HEK293T cells, which were transfected with an amino-terminal His-biotin-tagged CRBN construct, then preincubated with compounds for one hour followed by treatment with the MG132 proteasome inhibitor (to arrest degradation of ubiquitinated proteins). Cells were lysed and processed to measure CRBN ubiquitination by SDS-PAGE and immunoblot analysis using an anti-ubiquitin antibody. Cell proliferation studies were conducted in lenalidomide-sensitive and refractory multiple myeloma cells. […] T-cell costimulation was measured in purified primary human T cells stimulated using immobilized anti-CD3 antibody in cell culture for 2 days, and cytokine secretion was measured by ELISA.

[4] = test system: Revlimid-resistant NCI-H929 R1-10; experiment: Proliferation and viability by 7-AAD staining; type: cell-based; conditions: Homo sapiens, NCI-H929, 120 h; R1-10; 5 days; read-out: IC50, proliferation
[5] = test system: Revlimid-resistant NCI-H929 R3-10; experiment: Proliferation and viability by 7-AAD staining; type: cell-based; conditions: Homo sapiens, NCI-H929, 120 h; R3-10; 5 days; read-out: IC50, proliferation
[6] = test system: NCI-H929 cells (Control, Revlimid-sensitive, parental); experiment: Proliferation and viability by 7-AAD staining; type: cell-based; conditions: Homo sapiens, NCI-H929, 120 h; Control / parental H929; 5 days; read-out: IC50, proliferation
DoHH2 FL cells = experiment: 3 day 3H-thymidine incorporation assay; type: cell-based
[7] = Pharmacokinetics in monkey; type: in vivo; conditions: >99.5% S-enantiomer, <0.5% R-enantiomer
[8] = target: T1, endogeneous human CRBN (U266 extract) (Homo sapiens, UniProt Q96SW2); experiment: Thalidomide affinity bead competition assay; type: binding
T1 construct: endogenous in cells; host or cells: U266 human multiple myeloma cells (NP-40 lysate)
Experimental: Affinity beads coupled to a thalidomide acid analog were incubated with the U266 extracts and, after extensive washing of the beads, the bound proteins were eluted. CRBN binding to the thalidomide-coupled affinity beads was determined by quantitative CRBN immunoblot determination.

[9] = test system: normal donor peripheral blood mononuclear cells; experiment: Immunoglobulin M and G production; type: cell-based; conditions: Homo sapiens, PBMC
Experimental: Immunoglobulin M and G (“IgG and IgM”) production was measured from normal donor peripheral blood mononuclear cells by culturing in the presence of the B cell differentiation factors recombinant human IL-2 (20U/mL), IL-10 (50 ng/mL), IL-15 (10 ng/mL), His-tagged CD40 Ligand (50 ng/mL), polyHistidine mouse IgG1 antibody (5 μg/mL), and ODN 2006-Human TLR9 ligand (10 μg/mL) for 4 days, followed by IL-2, IL-10, IL-15, and IL-6 (50 ng/mL) for an additional 3 days. IgM and IgG were measured by ELISA.

Pharmacokinetics in rat = type: in vivo; conditions: SD Rat, 67% S-enantiomer, 33% R-enantiomer
[10] = test system: Revlimid-resistant NCI-H929 R2-10; experiment: Proliferation and viability by 7-AAD staining; type: cell-based; conditions: Homo sapiens, NCI-H929, 120 h; R2-10; 5 days; read-out: IC50, proliferation
Farage DLBCL cells = experiment: 3 day 3H-thymidine incorporation assay; type: cell-based
[11] = Sprague-Dawley, plasma, 10 mg/kg, 10 mpk po

Structure (SMILES): O=C1CCC(N2Cc3c(OCc4ccc(CN5CCOCC5)cc4)cccc3C2=O)C(=O)N1 (racemic) [Compound I, 3-(4-((4-(morpholinomethyl)benzyl)oxy)-1-oxoisoindolin-2-yl)piperidine-2,6-dione]
NFκB p65 and p50 activity (NFκB p65 and p50): significantly inhibits | Tumor Free Survival on Day 44 ([1]; 3 mg/kg in combination with Rituxan 2 mg/kg iv qw): 6/10 | Tumor Free Survival on Day 44 ([1]; 30 mg/kg in combination with Rituxan 2 mg/kg iv qw): 6/10 | tumor response in combination with Rituxan ([1]; all combination treatment groups, complete regression = tumor volume <25 mm^3): complete regression | blood vessel growth (ms CD31 IHC) [2]: significantly inhibits | apoptosis induction and live cell number reduction in combination (DoHH2 cell line; combined with Rituxan): additive manner | apoptosis and cell numbers (DoHH2 cell line; single agent): induced apoptosis

IC50 [3]: 40 nM | IC50 [4]: 1320 nM | IC50 [5]: 510 nM | F ([7]; 1 mpk po): 20% | AUC ([7]; plasma, 0.5 mg/kg, 0.5 mpk iv): 490 ng·h/mL and 1.1 µM·h | clearance ([7]; plasma, 0.5 mg/kg, 0.5 mpk iv, read-out: CLp): 8.4 mL/min/kg | Vd ([7]; plasma, 0.5 mg/kg, 0.5 mpk iv, read-out: Vss): 1.2 L/kg | AUC ([7]; plasma, 1 mg/kg, 1 mpk po): 390 ng·h/mL and 0.87 µM·h | Cmax ([7]; plasma, 1 mg/kg, 1 mpk po): 140 ng/mL and 310 nM | binding to CRBN [8]: binds to endogeneous human CRBN | F (Pharmacokinetics in rat; 10 mpk po): 52% | AUC (Pharmacokinetics in rat; Sprague-Dawley, plasma, 2 mg/kg, 2 mpk iv): 890 ng·h/mL and 2 µM·h | clearance (Pharmacokinetics in rat; Sprague-Dawley, plasma, 2 mg/kg, 2 mpk iv, read-out: CLp): 37 mL/min/kg | Vd (Pharmacokinetics in rat; Sprague-Dawley, plasma, 2 mg/kg, 2 mpk iv, read-out: Vss): 2.9 L/kg | AUC (Pharmacokinetics in rat; [11]): 2400 ng·h/mL and 5.2 µM·h | Cmax (Pharmacokinetics in rat; [11]): 1500 ng/mL and 3.3 µM | IC50 [10]: 1200 nM
Structure (SMILES): O=C1CC[C@H](N2Cc3c(OCc4ccc(CN5CCOCC5)cc4)cccc3C2=O)C(=O)N1 [Compound I-S, (S)-3-(4-((4-(morpholinomethyl)benzyl)oxy)-1-oxoisoindolin-2-yl)piperidine-2,6-dione]
IC50 [6]: 10 nM | IC50 (DoHH2 FL cells; Homo sapiens, DOHH-2, 72 h, 3 day, read-out: anti-proliferative IC50): 40 nM | combination effect, fractional product method (DoHH2 FL cells; combined with Rituxan): synergistic manner | IC50 ([9]; read-out: IgG production IC50): 2.1 nM | IC50 ([9]; read-out: IgM production IC50): 0.35 nM | IC50 (Farage DLBCL cells; Farage, 72 h, 3 day, read-out: anti-proliferative IC50): 280 nM | combination effect, fractional product method (Farage DLBCL cells; combined with Rituxan): additive to synergistic manner
